Results reported in PubChem BioAssay (NCI).
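The concentration for 50% growth inhibition is given as GI50. At the TGI there is no net growth.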

Assays:
Assay in all cases: DTP human tumour cell line panel, 384-well format
UACC-257 melanoma = tested on: UACC-257 melanoma
M14 melanoma = tested on: M14 melanoma
OVCAR-4 ovarian = tested on: OVCAR-4 ovarian
SN12C renal = tested on: SN12C renal
SNB-19 CNS = tested on: SNB-19 CNS
MDA-MB-435 melanoma = tested on: MDA-MB-435 melanoma
UO-31 renal = tested on: UO-31 renal
DU-145 prostate = tested on: DU-145 prostate
MALME-3M melanoma = tested on: MALME-3M melanoma
KM12 colon = tested on: KM12 colon
MDA-MB-231 breast = tested on: MDA-MB-231 breast
NCI-H460 NSCLC = tested on: NCI-H460 NSCLC
BT-549 breast = tested on: BT-549 breast
MOLT-4 leukemia = tested on: MOLT-4 leukemia
NCI-H322M lung = tested on: NCI-H322M lung
HCC-2998 colon = tested on: HCC-2998 colon
SF-295 CNS = tested on: SF-295 CNS
LOX IMVI melanoma = tested on: LOX IMVI melanoma
HL-60(TB) leukemia = tested on: HL-60(TB) leukemia
OVCAR-3 ovarian = tested on: OVCAR-3 ovarian
SK-OV-3 ovarian = tested on: SK-OV-3 ovarian
IGROV1 ovarian = tested on: IGROV1 ovarian
UACC-62 melanoma = tested on: UACC-62 melanoma
HCT-116 colon = tested on: HCT-116 colon
MCF7 breast = tested on: MCF7 breast
RXF 393 renal = tested on: RXF 393 renal
HCT-15 colon = tested on: HCT-15 colon
NCI-H522 lung = tested on: NCI-H522 lung
NCI/ADR-RES ovarian = tested on: NCI/ADR-RES ovarian
OVCAR-8 ovarian = tested on: OVCAR-8 ovarian
T-47D breast = tested on: T-47D breast
A498 renal = tested on: A498 renal
OVCAR-5 ovarian = tested on: OVCAR-5 ovarian
ACHN renal = tested on: ACHN renal
TK-10 renal = tested on: TK-10 renal
SW-620 colon = tested on: SW-620 colon
SF-268 CNS = tested on: SF-268 CNS
NCI-H23 lung = tested on: NCI-H23 lung
SR leukemia = tested on: SR leukemia
HOP-62 NSCLC = tested on: HOP-62 NSCLC
EKVX NSCLC = tested on: EKVX NSCLC
MDA-MB-468 breast = tested on: MDA-MB-468 breast
COLO 205 colon = tested on: COLO 205 colon
U251 glioblastoma = tested on: U251 glioblastoma
HOP-92 NSCLC = tested on: HOP-92 NSCLC
SK-MEL-28 melanoma = tested on: SK-MEL-28 melanoma
NCI-H226 lung = tested on: NCI-H226 lung
A549 NSCLC = tested on: A549 NSCLC
SF-539 CNS = tested on: SF-539 CNS
PC-3 prostate = tested on: PC-3 prostate
786-0 renal = tested on: 786-0 renal
CAKI-1 renal = tested on: CAKI-1 renal
SNB-75 CNS = tested on: SNB-75 CNS
RPMI-8226 leukemia = tested on: RPMI-8226 leukemia
SK-MEL-5 melanoma = tested on: SK-MEL-5 melanoma
HS 578T breast = tested on: HS 578T breast

SMILES: C#CCC(Cc1cnc2nc(N)nc(N)c2n1)c1ccc(C(=O)N[C@@H](CCC(=O)O)C(=O)O)cc1 (some centres not stated)
- GI50 (UACC-257 melanoma): < 10 nM
- TGI (UACC-257 melanoma): < 10 nM
- GI50 (M14 melanoma): < 10 nM
- TGI (M14 melanoma): < 10 nM
- GI50 (OVCAR-4 ovarian): < 10 nM
- TGI (OVCAR-4 ovarian): < 10 nM
- GI50 (SN12C renal): < 10 nM
- TGI (SN12C renal): < 10 nM
- GI50 (SNB-19 CNS): < 10 nM
- TGI (SNB-19 CNS): < 10 nM
- GI50 (MDA-MB-435 melanoma): < 10 nM
- TGI (MDA-MB-435 melanoma): < 10 nM
- GI50 (UO-31 renal): < 10 nM
- TGI (UO-31 renal): < 10 nM
- GI50 (DU-145 prostate): < 10 nM
- TGI (DU-145 prostate): > 100000 nM
- GI50 (MALME-3M melanoma): < 10 nM
- TGI (MALME-3M melanoma): < 10 nM
- GI50 (KM12 colon): < 10 nM
- TGI (KM12 colon): > 100000 nM
- GI50 (MDA-MB-231 breast): 905 nM
- TGI (MDA-MB-231 breast): 2410 nM
- GI50 (NCI-H460 NSCLC): < 10 nM
- TGI (NCI-H460 NSCLC): > 100000 nM
- GI50 (BT-549 breast): < 10 nM
- TGI (BT-549 breast): < 10 nM
- GI50 (MOLT-4 leukemia): < 10 nM
- TGI (MOLT-4 leukemia): < 10 nM
- GI50 (NCI-H322M lung): < 10 nM
- TGI (NCI-H322M lung): < 10 nM
- GI50 (HCC-2998 colon): < 10 nM
- TGI (HCC-2998 colon): > 100000 nM
- GI50 (SF-295 CNS): < 10 nM
- TGI (SF-295 CNS): < 10 nM
- GI50 (LOX IMVI melanoma): < 10 nM
- TGI (LOX IMVI melanoma): < 10 nM
- GI50 (HL-60(TB) leukemia): < 10 nM
- TGI (HL-60(TB) leukemia): < 10 nM
- GI50 (OVCAR-3 ovarian): < 10 nM
- TGI (OVCAR-3 ovarian): < 10 nM
- GI50 (SK-OV-3 ovarian): < 10 nM
- TGI (SK-OV-3 ovarian): < 10 nM
- GI50 (IGROV1 ovarian): < 10 nM
- TGI (IGROV1 ovarian): < 10 nM
- GI50 (UACC-62 melanoma): < 10 nM
- TGI (UACC-62 melanoma): < 10 nM
- GI50 (HCT-116 colon): < 10 nM
- TGI (HCT-116 colon): > 100000 nM
- GI50 (MCF7 breast): < 10 nM
- TGI (MCF7 breast): > 100000 nM
- GI50 (RXF 393 renal): < 10 nM
- TGI (RXF 393 renal): < 10 nM
- GI50 (HCT-15 colon): < 10 nM
- TGI (HCT-15 colon): > 100000 nM
- GI50 (NCI-H522 lung): < 10 nM
- TGI (NCI-H522 lung): < 10 nM
- GI50 (NCI/ADR-RES ovarian): < 10 nM
- TGI (NCI/ADR-RES ovarian): < 10 nM
- GI50 (OVCAR-8 ovarian): < 10 nM
- TGI (OVCAR-8 ovarian): < 10 nM
- GI50 (T-47D breast): < 10 nM
- TGI (T-47D breast): < 10 nM
- GI50 (A498 renal): < 10 nM
- TGI (A498 renal): < 10 nM
- GI50 (OVCAR-5 ovarian): < 10 nM
- TGI (OVCAR-5 ovarian): < 10 nM
- GI50 (ACHN renal): < 10 nM
- TGI (ACHN renal): < 10 nM
- GI50 (TK-10 renal): < 10 nM
- TGI (TK-10 renal): < 10 nM
- GI50 (SW-620 colon): < 10 nM
- TGI (SW-620 colon): < 10 nM
- GI50 (SF-268 CNS): < 10 nM
- TGI (SF-268 CNS): < 10 nM
- GI50 (NCI-H23 lung): < 10 nM
- TGI (NCI-H23 lung): < 10 nM
- GI50 (SR leukemia): < 10 nM
- TGI (SR leukemia): < 10 nM
- GI50 (HOP-62 NSCLC): < 10 nM
- TGI (HOP-62 NSCLC): < 10 nM
- GI50 (EKVX NSCLC): < 10 nM
- TGI (EKVX NSCLC): < 10 nM
- GI50 (MDA-MB-468 breast): < 10 nM
- TGI (MDA-MB-468 breast): < 10 nM
- GI50 (COLO 205 colon): < 10 nM
- TGI (COLO 205 colon): < 10 nM
- GI50 (U251 glioblastoma): < 10 nM
- TGI (U251 glioblastoma): < 10 nM
- GI50 (HOP-92 NSCLC): < 10 nM
- TGI (HOP-92 NSCLC): < 10 nM
- GI50 (SK-MEL-28 melanoma): < 10 nM
- TGI (SK-MEL-28 melanoma): < 10 nM
- GI50 (NCI-H226 lung): < 10 nM
- TGI (NCI-H226 lung): < 10 nM
- GI50 (A549 NSCLC): < 10 nM
- TGI (A549 NSCLC): < 10 nM
- GI50 (SF-539 CNS): < 10 nM
- TGI (SF-539 CNS): < 10 nM
- GI50 (PC-3 prostate): < 10 nM
- TGI (PC-3 prostate): < 10 nM
- GI50 (786-0 renal): < 10 nM
- TGI (786-0 renal): < 10 nM
- GI50 (CAKI-1 renal): < 10 nM
- TGI (CAKI-1 renal): < 10 nM
- GI50 (SNB-75 CNS): < 10 nM
- TGI (SNB-75 CNS): < 10 nM
- GI50 (RPMI-8226 leukemia): < 10 nM
- TGI (RPMI-8226 leukemia): < 10 nM
- GI50 (SK-MEL-5 melanoma): < 10 nM
- TGI (SK-MEL-5 melanoma): < 10 nM
- GI50 (HS 578T breast): < 10 nM
- TGI (HS 578T breast): < 10 nM
